Results from paper PMC9019904, “AD Informer Set: Chemical tools to facilitate Alzheimer's disease drug discovery” (Alzheimer's & Dementia : Translational Research & Clinical …, 2022).
Values after ≈ are worked out from the molar mass of the structure shown. Like-named read-outs stand apart in the source and are kept apart here. One block for each compound: values may come before it.

How the values were obtained:
physchem = settings: pH 7.4, aqueous buffer, kinetic from dmso stock
[1] = tested on: protein product expressed by the gene target; settings: cited from earlier work
[2] = tested on: BV2 (mouse microglia) cell line; test: pHrodo-myelin phagocytosis/cell viability high content imaging assay: viability (cell count, nuclear area, nuclear intensity)
Procedure, shortened: (§1)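 Cells adhered overnight, then were exposed to compounds at a single 10 μM for 48 h in total, with pHrodo-myelin added for the last 20 h. High-content imaging gave cell count per well as the main viability measure plus mean nuclear intensity per cell. Duplicate wells were averaged and expressed as % of untreated control.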

[3] = tested on: BV2 (mouse microglia) cell line; test: pHrodo-myelin phagocytosis/cell viability high content imaging assay: phagocytosis signal; assay type: cell-based
Procedure, shortened: (§2)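 HCI read-out ~22 h post pHrodo-myelin; phagocytosis + viability simultaneously; 3 parameters extracted; intensity up = early apoptosis, down = later apoptosis.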

[4] = tested on: HMC3 (human microglia) cell line; test: as above; assay type: cell-based
Procedure, shortened: as §2

[5] = Kinetic solubility in aqueous buffer pH 7.4 by total chemiluminescent nitrogen determination (Analiza); settings: aqueous buffer, pH 7.4, aqueous buffer, kinetic from dmso stock
cellular system = settings: cited from earlier work
[6] = tested on: HMC3 (human microglia) cell line; test: pHrodo-myelin phagocytosis/cell viability high content imaging assay: viability (cell count, nuclear area, nuclear intensity)
Procedure, shortened: as §1

[7] = BV2 cells, 10 uM compound, 48 hours treatment
[8] = HMC3 cells, 10 uM compound, 48 hours treatment

solubility kinetic (physchem): 56.8 µM (≈ 10.2 µg/mL)
SMILES: CC(C)CCOc1ccc(N)cc1 [CP-24879]
Reported on-target biochemical potency ([1]; gene target FADS1 and FADS2, ref PubMed 11939906, 27832159, 9605428): 3400 nM

SMILES: COCC(=O)O[C@]1(CCN(C)CCCc2nc3ccccc3[nH]2)CCc2cc(F)ccc2[C@@H]1C(C)C [Mibefradil]
Mouse microglial cytotoxicity at 10 μM (<70% control) ([2]; BV2 cells, 10 μM, cell count <70% control): Y (The compound was found to be cytotoxic (cell count threshold: <70% control) when murine immortalized microglial cells were dosed at 10 μM (Y: yes))
Inhibition of mouse microglial phagocytosis at 10 μM (<70% control) ([3]; BV2 cells, 10 μM): Y (The compound was found to inhibit phagocytosis (response threshold: <70% control) when murine immortalized microglial cells were dosed at 10 μM (Y: yes))
Inhibition of human microglial phagocytosis at 10 μM (<70% control) ([4]; HMC3 cells, 10 μM): Y (The compound was found to inhibit phagocytosis (response threshold: <70% control) when human immortalized microglial cells were dosed at 10 μM (Y: yes))
solubility kinetic [5]: 128 µM (≈ 63.4 µg/mL)
Reported as cell active (<10 μM) (cellular system): Y (key: Published data supports that the compound is active in a cellular system when dosed at 10 μM (Y/N); Published data supports that the compound is active in a cellular system when dosed at 10 μM (Y/N))
Reported on-target biochemical potency [1]: 980 nM

SMILES: CN(C)CCCN1c2ccccc2Sc2ccc(Cl)cc21 [Chlorpromazine]
solubility kinetic (physchem): 102 µM (≈ 32.6 µg/mL)
Reported as cell active (<10 μM) (cellular system): N
Reported on-target biochemical potency [1]: >1000 nM

solubility kinetic (physchem): 104 µM (≈ 40.2 µg/mL)
SMILES: CNC(=O)[C@H](Cc1c[nH]c2ccccc12)NC(=O)[C@@H](CC(=O)NO)CC(C)C [Ilomastat]
Reported on-target biochemical potency ([1]; target gene MMP17, ref Probe Miner, PubMed 33513143): 3.4 nM

SMILES: CN(C)CC1CCOC1(c1ccccc1)c1ccccc1.Cl (stereo not drawn) [AN2/AVex-73 HCl (Blarcamesine)]
Stimulation of mouse microglial phagocytosis at 10 μM (>150% control) ([3]; BV2 cells, 10 μM): Y (The compound was found to stimulate phagocytosis (response threshold: >150% control) when murine immortalized microglial cells were dosed at 10 μM (Y: yes))
solubility kinetic (physchem): 174 µM
Reported as cell active (<10 μM) (cellular system; published cellular activity at 10 μM): Y (Published data supports that the compound is active in a cellular system when dosed at 10 μM (Y/N))
Reported on-target biochemical potency (nM) ([1]; SIG-1R (genes listed: SIG-1R and CHRM2), ref PubMed 20829307, 29127580): SIG-1R = 860 nM

SMILES: Nc1nc(Nc2ccc3c(c2)CC[C@@H](N2CCCC2)CC3)nn1-c1cc2c(nn1)-c1ccccc1CCC2 [Bemcentinib (BGB324)]
Mouse microglial cytotoxicity at 10 μM (<70% control) ([2]; BV2, 10 μM): Y (The compound was found to be cytotoxic (cell count threshold: <70% control) when murine immortalized microglial cells were dosed at 10 μM (Y: yes))
Human microglial cytotoxicity at 10 μM (<70% control) ([6]; HMC3, 10 μM): Y (The compound was found to be cytotoxic (cell count threshold: <70% control) when human immortalized microglial cells were dosed at 10 μM (Y: yes))
Inhibition of mouse microglial phagocytosis at 10 μM (<70% control) ([3]; BV2, 10 μM): Y (The compound was found to inhibit phagocytosis (response threshold: <70% control) when murine immortalized microglial cells were dosed at 10 μM (Y: yes))
Inhibition of human microglial phagocytosis at 10 μM (<70% control) ([4]; HMC3, 10 μM): Y (The compound was found to inhibit phagocytosis (response threshold: <70% control) when human immortalized microglial cells were dosed at 10 μM (Y: yes))
solubility kinetic [5]: 82.9 µM (≈ 42 µg/mL)
Reported on-target biochemical potency [1]: 14 nM

SMILES: CCN(C)C(=O)Oc1cccc([C@H](C)N(C)C)c1 [Rivastigmine]
Stimulation of mouse microglial phagocytosis at 10 μM (>150% control) ([3]; BV2, 10 μM): Y (The compound was found to stimulate phagocytosis (response threshold: >150% control) when murine immortalized microglial cells were dosed at 10 μM (Y: yes))
solubility kinetic (physchem): 160 µM (≈ 40 µg/mL)
Reported on-target biochemical potency (nM): BChE ([1]; gene target BCHE, ref PubMed 23469045, 12166941): 37 nM

SMILES: Cl.NCCOCCOCCNC(=O)Cc1ccc(Nc2nc(NCc3ccc(F)cc3)nc(NCC3CCCCC3)n2)cc1 [ENOblock (AP-III-a4)]
Mouse microglial cytotoxicity at 10 μM (<70% control) ([2]; BV2, 10 μM): Y (The compound was found to be cytotoxic (cell count threshold: <70% control) when murine immortalized microglial cells were dosed at 10 μM (Y: yes))
Stimulation of mouse microglial phagocytosis at 10 μM (>150% control) ([3]; BV2, 10 μM): Y (The compound was found to stimulate phagocytosis (response threshold: >150% control) when murine immortalized microglial cells were dosed at 10 μM (Y: yes))
Inhibition of human microglial phagocytosis at 10 μM (<70% control) ([4]; HMC3, 10 μM): Y (The compound was found to inhibit phagocytosis (response threshold: <70% control) when human immortalized microglial cells were dosed at 10 μM (Y: yes))
solubility kinetic (physchem): 76.8 µM
Reported on-target biochemical potency ([1]; gene target ENO1, ref Probe Miner, PubMed 30679508, 28272459): 576 nM

SMILES: CCCCNc1ncc2c(-c3ccc(CN4CCN(C)CC4)cc3)cn([C@H]3CC[C@H](O)CC3)c2n1 [UNC2025C, reference compound]
Mouse microglial cytotoxicity at 10 μM (<70% control) ([2]; 10 μM, BV2): Y (The compound was found to be cytotoxic (cell count threshold: <70% control) when murine immortalized microglial cells were dosed at 10 μM (Y: yes))
1. Cell count (% control) [2, 7]: 17.3 % control
2. Nuclear Area (% Control) [2, 7]: 101.1 % Control
3. Nuclear DNA Intensity (% control) [2, 7]: 19.1 % control
Human microglial cytotoxicity at 10 μM (<70% control) ([6]; 10 μM, HMC3): Y (The compound was found to be cytotoxic (cell count threshold: <70% control) when human immortalized microglial cells were dosed at 10 μM (Y: yes))
1. Cell count (% control) [6, 8]: 38.6 % control
2. Nuclear Area (% Control) [6, 8]: 85.2 % Control
3. Nuclear DNA Intensity (% control) [6, 8]: 178.5 % control
Inhibition of mouse microglial phagocytosis at 10 μM (<70% control) ([3]; 10 μM, BV2): Y (The compound was found to inhibit phagocytosis (response threshold: <70% control) when murine immortalized microglial cells were dosed at 10 μM (Y: yes))
phagocytosis in mouse microglial cells (< 70% control inhibition, > 150% control stimulation) ([3]; BV2, 10 μM, pHrodo-myelin): inhibited
4. Phagocytosis (% control) ([3]; BV2 cells, 10 uM compound, 48 hours treatment, pHrodo-myelin final 20 hours): 0.168 % control
Inhibition of human microglial phagocytosis at 10 μM (<70% control) ([4]; 10 μM, HMC3): Y (The compound was found to inhibit phagocytosis (response threshold: <70% control) when human immortalized microglial cells were dosed at 10 μM (Y: yes))
phagocytosis in human microglial cells (< 70% control inhibition, > 150% control stimulation) ([4]; HMC3, 10 μM, pHrodo-myelin): inhibited
4. Phagocytosis (% control) ([4]; HMC3 cells, 10 uM compound, 48 hours treatment, pHrodo-myelin final 20 hours): 1.1 % control
solubility kinetic [5]: 43.4 µM (≈ 20.7 µg/mL)
Reported on-target biochemical potency ([1]; target MERTK, ref PubMed 25068800, 27649555): 0.74 nM

solubility kinetic (physchem): 131 µM (≈ 45.4 µg/mL)
SMILES: COc1ccc2[nH]c([S+]([O-])Cc3ncc(C)c(OC)c3C)nc2n1 (stereo not drawn) [Tenatoprazole]
Reported on-target biochemical potency ([1]; gene target DHTKD1, ref PubMed 32633484): 2700 nM

SMILES: CN1CCN(CCCN2c3ccccc3Sc3ccc(C(F)(F)F)cc32)CC1 [Trifluoperazine]
Mouse microglial cytotoxicity at 10 μM (<70% control) ([2]; 10 μM, BV2): Y (The compound was found to be cytotoxic (cell count threshold: <70% control) when murine immortalized microglial cells were dosed at 10 μM (Y: yes))
Inhibition of human microglial phagocytosis at 10 μM (<70% control) ([4]; 10 μM, HMC3): Y (The compound was found to inhibit phagocytosis (response threshold: <70% control) when human immortalized microglial cells were dosed at 10 μM (Y: yes))
Reported as cell active (<10 μM) (cellular system): Y (key: Published data supports that the compound is active in a cellular system when dosed at 10 μM (Y/N); Published data supports that the compound is active in a cellular system when dosed at 10 μM (Y/N))
Reported on-target biochemical potency [1]: 5200 nM

SMILES: Clc1ccccc1C(c1ccccc1)(c1ccccc1)n1ccnc1 [Clotrimazole]
Mouse microglial cytotoxicity at 10 μM (<70% control) ([2]; BV2, 10 μM): Y (The compound was found to be cytotoxic (cell count threshold: <70% control) when murine immortalized microglial cells were dosed at 10 μM (Y: yes))
solubility kinetic (physchem): 4.2 µM (≈ 1.45 µg/mL)
Reported on-target biochemical potency ([1]; gene target CYP19A1, ref Probe Miner): 1.8 nM

SMILES: CCc1cnn2c(NCc3ccc[n+]([O-])c3)cc(N3CCCC[C@H]3CCO)nc12 [Dinaciclib]
Mouse microglial cytotoxicity at 10 μM (<70% control) ([2]; BV2, 10 μM): Y (The compound was found to be cytotoxic (cell count threshold: <70% control) when murine immortalized microglial cells were dosed at 10 μM (Y: yes))
Human microglial cytotoxicity at 10 μM (<70% control) ([6]; HMC3, 10 μM): Y (The compound was found to be cytotoxic (cell count threshold: <70% control) when human immortalized microglial cells were dosed at 10 μM (Y: yes))
Inhibition of mouse microglial phagocytosis at 10 μM (<70% control) ([3]; BV2, 10 μM): Y (The compound was found to inhibit phagocytosis (response threshold: <70% control) when murine immortalized microglial cells were dosed at 10 μM (Y: yes))
Stimulation of human microglial phagocytosis at 10 μM (>150% control) ([4]; HMC3, 10 μM): Y (The compound was found to stimulate phagocytosis (response threshold: >150% control) when human immortalized microglial cells were dosed at 10 μM (Y: yes))
solubility kinetic (physchem): 143 µM (≈ 56.8 µg/mL)
Reported on-target biochemical potency ([1]; gene target CDK9, ref PubMed 20663931, 25289887, 21768779): 4 nM

SMILES: CC(=O)N1CCN(c2ccc(OCC3COC(Cn4ccnc4)(c4ccc(Cl)cc4Cl)O3)cc2)CC1 (stereo not drawn) [Ketoconazole]
Stimulation of mouse microglial phagocytosis at 10 μM (>150% control) ([3]; BV2, 10 μM): Y (The compound was found to stimulate phagocytosis (response threshold: >150% control) when murine immortalized microglial cells were dosed at 10 μM (Y: yes))
solubility kinetic [5]: 120 µM (≈ 63.6 µg/mL)
Reported as cell active (<10 μM) (cellular system): Y (key: Published data supports that the compound is active in a cellular system when dosed at 10 μM (Y/N); Published data supports that the compound is active in a cellular system when dosed at 10 μM (Y/N))
Reported on-target biochemical potency [1]: 64000 nM
